Laboratory results as given in patent publication US9643959B2, “Tubulin polymerization inhibitor and method for synthesizing same” (KOREA RESEARCH INSTITUTE OF BIOSCIENCE AND BIOTECHNOLOGY, priority 2013, dated 2017).

Tested on: cell proliferation
Test: screening of the small-molecule library for materials that can inhibit cell proliferation
Type: cell-based
Conditions: screen of small-molecule library; no data or method given

CCOC(=O)Cn1c(C)c(/C=N/NC(=O)c2cc3c(ccc4ccccc43)o2)c2ccccc21 [Compound 7, (E)-ethyl 2-(2-methyl-3-((2-(naphtho[2,1-b]furan-2-carbonyl)hydrazono)methyl)-1H-indol-1-yl)acetate]
activity of inhibiting mitosis: has an activity of inhibiting mitosis
